{"source": "paper PMC5218480", "about": "(PLoS ONE, 2017)", "test_system": "MV-4-11 cells", "assay": "Gene expression microarray analysis (Affymetrix PrimeView) and GSEA", "format": "cell-based, human", "design": "RFU PODN (11730768_x_at) / Fold change /veh PODN (11730768_x_at) / RFU LINC00158 (11744669_a_at) / Fold change /veh LINC00158 (11744669_a_at) / RFU DUSP10 (11751237_a_at) / Fold change /veh DUSP10 (11751237_a_at) / RFU ID3 (11757404_x_at) / Fold change /veh ID3 (11757404_x_at) / RFU PLEKHG5 (11737974_s_at) / Fold change /veh PLEKHG5 (11737974_s_at) / RFU LRRC4B (11730491_at) / Fold change /veh LRRC4B (11730491_at) / RFU GIMAP4 (11747438_a_at) / Fold change /veh GIMAP4 (11747438_a_at) / RFU KRT8 (11758183_x_at) / Fold change /veh KRT8 (11758183_x_at) / RFU CNN1 (11734310_a_at) / Fold change /veh CNN1 (11734310_a_at) / RFU VPS37D (11726825_at) / Fold change /veh VPS37D (11726825_at) / RFU C10orf10 (11716522_x_at) / Fold change /veh C10orf10 (11716522_x_at) / RFU KIR2DL2 /// KIR2DL4 /// KIR2DL5A /// KIR2DL5B /// KIR2DS1 /// KIR2DS2 /// KIR2DS3 /// KIR2DS4 /// KIR3DL3 /// KIR3DL3 /// KIR3DS1 (11738374_at) / Fold change /veh KIR2DL2 /// KIR2DL4 /// KIR2DL5A /// KIR2DL5B /// KIR2DS1 /// KIR2DS2 /// KIR2DS3 /// KIR2DS4 /// KIR3DL3 /// KIR3DL3 /// KIR3DS1 (11738374_at) / RFU C1QL1 (11718748_at) / Fold change /veh C1QL1 (11718748_at) / RFU TMPRSS4 (11747572_a_at) / Fold change /veh TMPRSS4 (11747572_a_at) / RFU HAMP (11756126_x_at) / Fold change /veh HAMP (11756126_x_at) / RFU RNFT2 (11725882_a_at) / Fold change /veh RNFT2 (11725882_a_at) / RFU NR4A2 (11747474_a_at) / Fold change /veh NR4A2 (11747474_a_at) / RFU ABCC12 (11746883_a_at) / Fold change /veh ABCC12 (11746883_a_at) / RFU TMEM136 (11760407_x_at) / Fold change /veh TMEM136 (11760407_x_at) / RFU CLDN22 /// WWC2 (11732394_at) / Fold change /veh CLDN22 /// WWC2 (11732394_at) / RFU HLA-DPB1 (11760878_x_at) / Fold change /veh HLA-DPB1 (11760878_x_at) / RFU SPINT1 (11716480_a_at) / Fold change /veh SPINT1 (11716480_a_at) / RFU GAP43 (11754022_s_at) / Fold change /veh GAP43 (11754022_s_at) / RFU A4GNT (11735810_at) / Fold change /veh A4GNT (11735810_at) / RFU PRB3 (11715151_x_at) / Fold change /veh PRB3 (11715151_x_at) / RFU TUBB4B (11761932_at) / Fold change /veh TUBB4B (11761932_at) / RFU CAPN14 (11732068_a_at) / Fold change /veh CAPN14 (11732068_a_at) / RFU TMCC2 (11721928_a_at) / Fold change /veh TMCC2 (11721928_a_at) / RFU IRGQ (11745062_a_at) / Fold change /veh IRGQ (11745062_a_at) / RFU FAM174B (11720279_a_at) / Fold change /veh FAM174B (11720279_a_at) / RFU TMPRSS4 (11748680_a_at) / Fold change /veh TMPRSS4 (11748680_a_at) / RFU FAM212B (11763350_a_at) / Fold change /veh FAM212B (11763350_a_at) / RFU PLEKHG5 (11743358_a_at) / Fold change /veh PLEKHG5 (11743358_a_at) / RFU ZSCAN30 (11745921_a_at) / Fold change /veh ZSCAN30 (11745921_a_at) / RFU CMKLR1 (11741424_a_at) / Fold change /veh CMKLR1 (11741424_a_at) / RFU LOC101060620 /// MAPK8IP1 (11723275_at) / Fold change /veh LOC101060620 /// MAPK8IP1 (11723275_at) / RFU SPTSSB (11747773_x_at) / Fold change /veh SPTSSB (11747773_x_at) / RFU PRSS12 (11739890_at) / Fold change /veh PRSS12 (11739890_at) / RFU BIN1 (11741810_x_at) / Fold change /veh BIN1 (11741810_x_at) / RFU WNT11 (11732464_a_at) / Fold change /veh WNT11 (11732464_a_at) / RFU C10orf10 (11716521_a_at) / Fold change /veh C10orf10 (11716521_a_at) / RFU C5orf56 (11738089_at) / Fold change /veh C5orf56 (11738089_at) / RFU CYB561 (11721691_x_at) / Fold change /veh CYB561 (11721691_x_at) / RFU ANKRD19P (11752326_a_at) / Fold change /veh ANKRD19P (11752326_a_at) / RFU OR2T12 /// OR2T33 /// OR2T8 (11738714_s_at) / Fold change /veh OR2T12 /// OR2T33 /// OR2T8 (11738714_s_at) / RFU VCAN (11748164_a_at) / Fold change /veh VCAN (11748164_a_at) / RFU JSRP1 (11732532_at) / Fold change /veh JSRP1 (11732532_at) / RFU KRTAP10-11 (11738290_x_at) / Fold change /veh KRTAP10-11 (11738290_x_at) / RFU MYO3A (11730013_a_at) / Fold change /veh MYO3A (11730013_a_at) / RFU EBF3 (11725865_a_at) / Fold change /veh EBF3 (11725865_a_at) / RFU CAMK2N1 (11719241_x_at) / Fold change /veh CAMK2N1 (11719241_x_at) / RFU C5orf56 (11738088_a_at) / Fold change /veh C5orf56 (11738088_a_at) / RFU OLFML3 (11715873_a_at) / Fold change /veh OLFML3 (11715873_a_at) / RFU LOC100653217 /// NTM (11731650_a_at) / Fold change /veh LOC100653217 /// NTM (11731650_a_at) / RFU MAPK11 (11762145_a_at) / Fold change /veh MAPK11 (11762145_a_at) / RFU FIZ1 (11724087_x_at) / Fold change /veh FIZ1 (11724087_x_at) / RFU OASL (11726364_x_at) / Fold change /veh OASL (11726364_x_at) / RFU SOX15 (11748057_x_at) / Fold change /veh SOX15 (11748057_x_at) / RFU CD79A (11719716_a_at) / Fold change /veh CD79A (11719716_a_at) / RFU HIST1H1D (11736915_at) / Fold change /veh HIST1H1D (11736915_at) / RFU CASKIN2 (11723855_a_at) / Fold change /veh CASKIN2 (11723855_a_at) / RFU LOC730098 (11760151_x_at) / Fold change /veh LOC730098 (11760151_x_at) / RFU OR4N2 (11742367_at) / Fold change /veh OR4N2 (11742367_at) / RFU PRRT2 (11749266_a_at) / Fold change /veh PRRT2 (11749266_a_at) / RFU SNX32 (11753110_a_at) / Fold change /veh SNX32 (11753110_a_at) / RFU CDHR5 (11726645_a_at) / Fold change /veh CDHR5 (11726645_a_at) / RFU RCAN1 (11760418_a_at) / Fold change /veh RCAN1 (11760418_a_at) / RFU FAM167A (11723789_a_at) / Fold change /veh FAM167A (11723789_a_at) / RFU FAM26E (11764081_at) / Fold change /veh FAM26E (11764081_at) / RFU ISYNA1 (11749810_s_at) / Fold change /veh ISYNA1 (11749810_s_at) / RFU ACY1 (11761880_at) / Fold change /veh ACY1 (11761880_at) / RFU 11764098_at / Fold change /veh 11764098_at / RFU SAMD14 (11745864_x_at) / Fold change /veh SAMD14 (11745864_x_at) / RFU NPB (11741838_a_at) / Fold change /veh NPB (11741838_a_at) / RFU TMPRSS6 (11731388_a_at) / Fold change /veh TMPRSS6 (11731388_a_at) / RFU KRTAP10-2 (11738614_at) / Fold change /veh KRTAP10-2 (11738614_at) / RFU ARHGAP8 /// PRR5-ARHGAP8 (11727945_x_at) / Fold change /veh ARHGAP8 /// PRR5-ARHGAP8 (11727945_x_at) / RFU KRTAP5-7 /// NADSYN1 (11734609_at) / Fold change /veh KRTAP5-7 /// NADSYN1 (11734609_at) / RFU RASL12 (11751679_a_at) / Fold change /veh RASL12 (11751679_a_at) / RFU CDKN2B (11736163_a_at) / Fold change /veh CDKN2B (11736163_a_at) / RFU PRF1 (11729649_at) / Fold change /veh PRF1 (11729649_at) / RFU, ZNF638 /// ZNF638-IT1 / Fold change vs veh, ZNF638 /// ZNF638-IT1 / RFU, PANK3 / Fold change vs veh, PANK3 / RFU, SH3YL1 / Fold change vs veh, SH3YL1 / RFU, ZEB2 / Fold change vs veh, ZEB2 / RFU, NRIP1 / Fold change vs veh, NRIP1 / RFU, PTTG1IP / Fold change vs veh, PTTG1IP / RFU, CAPN2 / Fold change vs veh, CAPN2 / RFU, MED14 / Fold change vs veh, MED14 / RFU, SNORA58 / Fold change vs veh, SNORA58 / RFU, C1orf63 / Fold change vs veh, C1orf63 / RFU, LRRFIP1 / Fold change vs veh, LRRFIP1 / RFU, NDUFAF7 / Fold change vs veh, NDUFAF7 / RFU, SLC12A2 / Fold change vs veh, SLC12A2 / RFU, IBTK / Fold change vs veh, IBTK / RFU, ESF1 / Fold change vs veh, ESF1 / Fold change vs veh, TMEM50B / RFU, TAOK1 / Fold change vs veh, TAOK1 / RFU, ACBD3 / Fold change vs veh, ACBD3 / RFU, TMA16 / Fold change vs veh, TMA16 / RFU, RWDD3 / Fold change vs veh, RWDD3 / RFU, BCAT1 / Fold change vs veh, BCAT1 / RFU, EDEM3 / Fold change vs veh, EDEM3 / RFU, TMEM33 / Fold change vs veh, TMEM33 / RFU, WDR75 / Fold change vs veh, WDR75 / RFU, AHCTF1 / Fold change vs veh, AHCTF1 / RFU, TFRC / Fold change vs veh, TFRC / RFU, ZDHHC17 / Fold change vs veh, ZDHHC17 / RFU, NOM1 / Fold change vs veh, NOM1 / RFU, ARL8B / Fold change vs veh, ARL8B / RFU, ZBTB11 / Fold change vs veh, ZBTB11 / RFU, TAMM41 / Fold change vs veh, TAMM41 / RFU, KIAA1704 /// LOC100996395 / Fold change vs veh, KIAA1704 /// LOC100996395 / RFU, ING1 / Fold change vs veh, ING1 / RFU, TRMT61B / Fold change vs veh, TRMT61B / RFU, FUBP3 / Fold change vs veh, FUBP3 / RFU, TP53 / Fold change vs veh, TP53 / RFU, TNKS2 / Fold change vs veh, TNKS2 / RFU, ZFP14 / Fold change vs veh, ZFP14 / RFU, ACTR2 / Fold change vs veh, ACTR2 / RFU, PPP3R1 / Fold change vs veh, PPP3R1 / RFU, PIK3R1 / Fold change vs veh, PIK3R1 / RFU, HNRNPA1 / Fold change vs veh, HNRNPA1 / RFU, RNF170 / Fold change vs veh, RNF170 / RFU, ZNF28 / Fold change vs veh, ZNF28 / RFU, RNGTT / Fold change vs veh, RNGTT / RFU, OGT / Fold change vs veh, OGT / RFU, BRD1 / Fold change vs veh, BRD1 / RFU, MARS / Fold change vs veh, MARS / RFU, ZNF655 / Fold change vs veh, ZNF655 / RFU, FAHD1 / Fold change vs veh, FAHD1 / RFU, BDP1 / Fold change vs veh, BDP1 / RFU, LRRCC1 / Fold change vs veh, LRRCC1 / RFU, ARID1A / Fold change vs veh, ARID1A / RFU, ZNF146 / Fold change vs veh, ZNF146 / RFU, ZNF330 / Fold change vs veh, ZNF330 / RFU, GPN3 / Fold change vs veh, GPN3 / RFU, C9orf123 / Fold change vs veh, C9orf123 / RFU, N4BP2L2 / Fold change vs veh, N4BP2L2 / RFU, ARFIP1 / Fold change vs veh, ARFIP1 / RFU, FAM179B / Fold change vs veh, FAM179B / RFU, BCL10 / Fold change vs veh, BCL10 / RFU, UHRF1BP1L / Fold change vs veh, UHRF1BP1L / RFU, BET1 / Fold change vs veh, BET1 / RFU, CNOT2 / Fold change vs veh, CNOT2 / RFU, ZNF268 / Fold change vs veh, ZNF268 / Fold change vs veh, ZNF507 / RFU, DGCR2 / Fold change vs veh, DGCR2 / RFU, WDSUB1 / Fold change vs veh, WDSUB1 / Fold change vs veh, HSP90B1 /// MIR3652 / RFU, ADSS / Fold change vs veh, ADSS / RFU, GK / Fold change vs veh, GK / RFU, ZNF148 / Fold change vs veh, ZNF148 / RFU, TAF9 / Fold change vs veh, TAF9 / RFU, SLC1A5 / Fold change vs veh, SLC1A5 / RFU, SLMO2 / Fold change vs veh, SLMO2 / RFU, ABCC4 / Fold change vs veh, ABCC4 / RFU, LOC101060439 /// RAP1B / Fold change vs veh, LOC101060439 /// RAP1B / RFU, RFX7 / Fold change vs veh, RFX7 / RFU, GTPBP10 / Fold change vs veh, GTPBP10 / RFU, CNEP1R1 / Fold change vs veh, CNEP1R1 / RFU, BIVM-ERCC5 /// ERCC5 / Fold change vs veh, BIVM-ERCC5 /// ERCC5 / RFU, ILF3 / Fold change vs veh, ILF3 / RFU 11762660_at / Fold change /veh 11762660_at / RFU VCAN (11757783_s_at) / Fold change /veh VCAN (11757783_s_at) / RFU DDX43 (11728927_at) / Fold change /veh DDX43 (11728927_at) / RFU KRT8 (11758188_x_at) / Fold change /veh KRT8 (11758188_x_at) / RFU NKD1 (11759106_at) / Fold change /veh NKD1 (11759106_at) / RFU SRD5A1 (11742802_a_at) / Fold change /veh SRD5A1 (11742802_a_at) / RFU TPSAB1 /// TPSB2 (11721975_s_at) / Fold change /veh TPSAB1 /// TPSB2 (11721975_s_at) / RFU GSTM3 (11746129_a_at) / Fold change /veh GSTM3 (11746129_a_at) / RFU IL23R (11737362_x_at) / Fold change /veh IL23R (11737362_x_at) / RFU TMEM51 (11727254_a_at) / Fold change /veh TMEM51 (11727254_a_at) / RFU PIWIL2 (11732686_x_at) / Fold change /veh PIWIL2 (11732686_x_at) / RFU ORM1 (11744905_x_at) / Fold change /veh ORM1 (11744905_x_at) / RFU CCDC152 (11743942_at) / Fold change /veh CCDC152 (11743942_at) / RFU ECM1 (11717891_a_at) / Fold change /veh ECM1 (11717891_a_at) / RFU IL23R (11748794_a_at) / Fold change /veh IL23R (11748794_a_at) / RFU TNFAIP8L3 (11732012_x_at) / Fold change /veh TNFAIP8L3 (11732012_x_at) / RFU MBOAT4 (11741988_at) / Fold change /veh MBOAT4 (11741988_at) / RFU 11764193_at / Fold change /veh 11764193_at / RFU TMEM53 (11763286_at) / Fold change /veh TMEM53 (11763286_at) / RFU MAGEB2 (11727129_at) / Fold change /veh MAGEB2 (11727129_at) / RFU TMEM200A (11744735_a_at) / Fold change /veh TMEM200A (11744735_a_at) / RFU CCDC152 (11751479_a_at) / Fold change /veh CCDC152 (11751479_a_at) / RFU FAM211A (11726209_a_at) / Fold change /veh FAM211A (11726209_a_at) / RFU RGS16 (11746705_a_at) / Fold change /veh RGS16 (11746705_a_at) / RFU VCAN (11755009_s_at) / Fold change /veh VCAN (11755009_s_at) / RFU RHOB (11743442_s_at) / Fold change /veh RHOB (11743442_s_at) / RFU RGS16 (11720943_a_at) / Fold change /veh RGS16 (11720943_a_at) / RFU RGS16 (11720944_at) / Fold change /veh RGS16 (11720944_at) / RFU, VPS4B / Fold change vs veh, VPS4B / RFU, CREB1 / Fold change vs veh, CREB1 / RFU, DNAJC13 / Fold change vs veh, DNAJC13 / RFU, GNAQ / Fold change vs veh, GNAQ / RFU, CDK5R1 / Fold change vs veh, CDK5R1 / RFU, ZRANB3 / Fold change vs veh, ZRANB3 / RFU, CUL4A / Fold change vs veh, CUL4A / RFU, CCNY / Fold change vs veh, CCNY / RFU, UFL1 / Fold change vs veh, UFL1 / RFU, COG3 / Fold change vs veh, COG3 / RFU, DIAPH2 / Fold change vs veh, DIAPH2 / RFU, SKA2 / Fold change vs veh, SKA2 / RFU, AFF3 / Fold change vs veh, AFF3 / RFU, LMF1 / Fold change vs veh, LMF1 / RFU, IPO11 / Fold change vs veh, IPO11 / RFU, DFFB / Fold change vs veh, DFFB / RFU, FOXP1 / Fold change vs veh, FOXP1 / RFU, CARD8 / Fold change vs veh, CARD8 / RFU, STRN3 / Fold change vs veh, STRN3 / RFU, ADK / Fold change vs veh, ADK / RFU, RASSF2 / Fold change vs veh, RASSF2 / RFU, WIPF1 / Fold change vs veh, WIPF1 / RFU, LARP1B / Fold change vs veh, LARP1B / RFU, RASA1 / Fold change vs veh, RASA1 / RFU, RB1 / Fold change vs veh, RB1 / RFU, PPFIA1 / Fold change vs veh, PPFIA1 / RFU, MAT2A / Fold change vs veh, MAT2A / RFU, CCT5 / Fold change vs veh, CCT5 / RFU, WDR92 / Fold change vs veh, WDR92 / RFU, CUX1 / Fold change vs veh, CUX1 / RFU, TTC7A / Fold change vs veh, TTC7A / RFU, TMEM135 / Fold change vs veh, TMEM135 / RFU, DEPTOR / Fold change vs veh, DEPTOR / RFU, CPM / Fold change vs veh, CPM / RFU, DNAJB6 / Fold change vs veh, DNAJB6 / RFU, CACNA2D3 / Fold change vs veh, CACNA2D3 / RFU, DTX4 / Fold change vs veh, DTX4 / RFU, TFCP2 / Fold change vs veh, TFCP2 / RFU, GMCL1 /// GMCL1P1 / Fold change vs veh, GMCL1 /// GMCL1P1 / RFU, AEBP2 / Fold change vs veh, AEBP2 / RFU, SNHG1 /// SNORD22 /// SNORD25 /// SNORD26 /// SNORD27 /// SNORD28 /// SNORD29 /// SNORD31 / Fold change vs veh, SNHG1 /// SNORD22 /// SNORD25 /// SNORD26 /// SNORD27 /// SNORD28 /// SNORD29 /// SNORD31 / Fold change (Aza/veh), C12orf56 (ProbeSet 11735607_a_at) / Fold change (ACY-1035/veh), C12orf56 (ProbeSet 11735607_a_at) / Fold change (Aza/veh), FGFR1OP (ProbeSet 11751329_s_at) / Fold change (ACY-1035/veh), FGFR1OP (ProbeSet 11751329_s_at) / Fold change (Aza/veh), VPS36 (ProbeSet 11739960_a_at) / Fold change (ACY-1035/veh), VPS36 (ProbeSet 11739960_a_at) / RFU SYPL1 (11715823_x_at) / Fold change /veh SYPL1 (11715823_x_at) / RFU IGFBP7 (11715501_s_at) / Fold change /veh IGFBP7 (11715501_s_at) / RFU REEP3 (11722064_at) / Fold change /veh REEP3 (11722064_at) / RFU IGLL1 (11728026_x_at) / Fold change /veh IGLL1 (11728026_x_at): dose or concentration left out as unconfirmed", "conditions": "MV-4-11 cells, 48 hours", "data": [{"compound": "Nc1ncn([C@@H]2O[C@H](CO)[C@@H](O)[C@H]2O)c(=O)n1", "note": "[azacitidine]", "values": [{"measurement": "Fold change /veh ACY1 (11761880_at)", "value": 1.09}]}]}
